From PMC3433420 (PLoS ONE, 2012)
Read-outs that look alike come from different tables or passages of the source. Residues, ends and D or L forms follow the SMILES beside them.

What was measured:
SH2 and PTB domains = settings: most recent PM interactions, ref Jones et al. 2006 / Kaushansky et al. Chem and Biol 2008, cited from earlier work
Description: Supplement pone.0044471.s022.xlsx, sheet "Most recent PM interactions" | column: Kd || Supplement pone.0044471.s022.xlsx, sheet "All original PM interactions" | column: Kd

GRB7 SH2 domain = GRB7 SH2 domain (Homo sapiens, UniProt Q14451); set-up: 6X His; thioredoxin; made in house; host or cells: E. coli BL21(DE3)pLysS; settings: Protein GRB7; most recent PM interactions; ref Jones et al. 2006 / Kaushansky et al. Chem and Biol 2008; cited from earlier work
Chain of GRB7 SH2 domain (Q14451 431-527 limits assumed): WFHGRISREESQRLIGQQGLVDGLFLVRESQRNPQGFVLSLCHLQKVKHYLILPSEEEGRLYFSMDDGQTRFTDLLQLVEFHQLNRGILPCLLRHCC

PLCG1-C SH2 domain = target: T1, PLCG1-C SH2 domain (Homo sapiens, UniProt P19174); assay: biochemical; assay type: binding; settings: high-confidence ErbB interactions
T1 construct: The 6X His-tagged SH2 domain proteins used in the assay, PLCG1-C, SHC4, VAV2; thioredoxin; made in house; host or cells: E. coli BL21(DE3)pLysS
T1 sequence (P19174 668-756 limits assumed): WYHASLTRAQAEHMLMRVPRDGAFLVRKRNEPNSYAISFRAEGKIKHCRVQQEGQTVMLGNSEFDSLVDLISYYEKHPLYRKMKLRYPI

[1] = target: T2, PLCG1-NC tandem SH2 domains (Homo sapiens, UniProt P19174); assay: FP saturation binding assay; settings: protein PLCG1-NC; FP, high-confidence ErbB interactions; mean of replicate hits
T2 construct: the tandem protein was included in our analysis with all internal amino acids linking the domains; 6X His; thioredoxin; made in house; host or cells: E. coli BL21(DE3)pLysS
T2 sequence (P19174 550-756 limits assumed): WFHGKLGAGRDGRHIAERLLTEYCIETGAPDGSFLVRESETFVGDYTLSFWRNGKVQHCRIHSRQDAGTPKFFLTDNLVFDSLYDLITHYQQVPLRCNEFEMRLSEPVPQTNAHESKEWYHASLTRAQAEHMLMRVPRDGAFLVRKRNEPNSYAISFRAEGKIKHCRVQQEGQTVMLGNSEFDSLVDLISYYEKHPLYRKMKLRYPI
Description: (See Figure 1A) Rhodamine-labeled peptides were dissolved in assay buffer (20 mM HEPES, 100 mM KCl, 0.1% Tween-20, 5 mM DTT, pH 7.8), diluted to a concentration of 20 nM, and plated into black 384-well plates (Corning, Corning, NY) at 5 µL/well using a Perkin Elmer EP3 pipetting workstation (V&P Scientific, Inc., San Diego, CA). SH2, PTB, and thioredoxin control proteins were plated into the first column of 2 mL 96-well plates (Corning) at a concentration of 20 µM and serially diluted 1∶2 into freezing buffer (300 mM NaCl, 50 mM Na2PO4, pH 8, 20% glycerol v/v) eleven times using a Tecan Freedom EVO 100 workstation (Tecan, Männedorf, Switzerland). For the interaction assay, 5 µL of each of the twelve protein concentrations was added to the peptide-containing 384-well plates via the EP3 resulting in a protein dilution range of 0.002–10 µM and a final volume of 10 µL; peptide concentration was fixed at 10 nM. […] Experimental values were output as millipolarization (mP) units and imported into MATLAB (The MathWorks, Inc., Natick, MA) in which equation (1) was used to determine dissociation constants (KDs) for each protein/peptide pairing by least squares nonlinear regression. [drawing 1] (1)
FP was described by the following equation: P=Iparallel-IperpendicularIparallel+Iperpendicular, where “P” denotes polarization, and “I” denotes the fluorescent intensity relative to the plane of incident light. Experimental values were output as millipolarization (mP) units and imported into MATLAB where the following equation was used to determine dissociation constants (KDs) for each protein/peptide pairing by least squares nonlinear regression:
Pobs=Pmax∙ProteinKD+Protein [picture] (1)
Peptides were initially tested for systematic plate effects across protein dilutions and nonspecific binding to thioredoxin by linear regression analysis and any effects were regressed out. The median baseline control polarization value for each plate was then subtracted from each data point to make each binding curve intersect at zero. Plates with excessive variation in baseline control polarizations on both a global and run-specific manner (Dixon’s Q test, p < 0.05) were excluded from further analysis. Outliers in each binding curve were identified and removed using an iterative procedure as follows. The residuals for each fit were used to calculate a global standard deviation of the residuals (GSDR) for each concentration of SH2 domain over all interactions, and individual data points with residuals < or > two GSDR from the global mean residual were flagged as outliers. The outlier with the largest residual from each interaction was removed and nonlinear regression was again performed. This procedure was repeated if additional outliers were identified for an interaction, discarding the interaction if the number of outliers exceeded three. […] In order to further control our false positive rate against hidden confounding variables producing binding artifacts, we sought to determine whether there was a significant relationship between the strength of an interaction and its technical replication rate at our stringent significance and filtering thresholds. We performed logistic regression on the proportion of successful replicates for each interaction query against KD for all interactions (Figure S15A). […] “High-confidence” FP interactions are defined as those having 1 - P(Observed Replication Rate | Expectation) > 0.5 and that have replicated at least twice across independent FP runs. […] The compiled FP data were organized into heatmaps generated by MATLAB and relative binding strength (µM). Peptides without at least one positive hit were classified as “no interaction” if there was no homologous sequence (i.e. identical at the +1 to +4 positions relative to the phosphotyrosine) that produced a positive interaction within the ErbB receptor family.

RASA1-N SH2 domain = target: T3, RASA1-N SH2 domain (Homo sapiens, UniProt P20936); assay: FP saturation binding assay
T3 sequence (P20936 181-272 limits assumed): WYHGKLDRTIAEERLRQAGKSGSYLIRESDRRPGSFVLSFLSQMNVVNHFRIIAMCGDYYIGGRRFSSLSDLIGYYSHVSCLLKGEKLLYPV

In the case of MGDLVDAEEpYLVPQQGF [ErbB2 1023], the Kd (SH2 and PTB domains; Protein BLK) is listed as 600 nM, the Kd (SH2 and PTB domains; Protein ITK) is listed as 450 nM and the Kd (SH2 and PTB domains; Protein PIK3R1-NC) is listed as 1640 nM. The Kd (SH2 and PTB domains; Protein PIK3R2-N) was 1950 nM, the Kd (SH2 and PTB domains; Protein PIK3R3-N) was 1930 nM and the Kd (SH2 and PTB domains; Protein PIK3R3-NC) was 530 nM. For the same molecule, the Kd (SH2 and PTB domains; Protein PLCG1-C) was 1460 nM, the Kd (SH2 and PTB domains; Protein RASA1-N) was 2000 nM and the Kd (SH2 and PTB domains; Protein RASA1-NC) was 1770 nM. The Kd (SH2 and PTB domains; Protein SRC) was 760 nM, the Kd (SH2 and PTB domains; Protein SUPT6H) was 910 nM and the Kd (SH2 and PTB domains; Protein SYK-NC) was 370 nM. For the same molecule, the Kd (SH2 and PTB domains; Protein YES1) was 1170 nM and the Kd (GRB7 SH2 domain) was 1800 nM.
In the case of AFSPAFDNLYpYWDQDPPE [ErbB2 1222], the Kd (SH2 and PTB domains; Protein ABL1) is listed as 1840 nM, the Kd (SH2 and PTB domains; Protein ABL2) is listed as 190 nM and the Kd (SH2 and PTB domains; Protein BLK) is listed as 50 nM. For the same molecule, the Kd (SH2 and PTB domains; Protein CRKL) was 1460 nM, the Kd (SH2 and PTB domains; Protein GRB10) was 490 nM and the Kd (SH2 and PTB domains; Protein ITK) was 220 nM. The Kd (SH2 and PTB domains; Protein PIK3R1-NC) was 1840 nM, the Kd (SH2 and PTB domains; Protein PIK3R3-NC) was 780 nM and the Kd (SH2 and PTB domains; Protein PLCG1-NC) was 1790 nM. For the same molecule, the Kd (SH2 and PTB domains; Protein PLCG2-N) was 600 nM, the Kd (SH2 and PTB domains; Protein PLCG2-NC) was 260 nM and the Kd (SH2 and PTB domains; Protein RASA1-N) was 500 nM. The Kd (SH2 and PTB domains; Protein RASA1-NC) was 220 nM, the Kd (SH2 and PTB domains; Protein SH2B2) was 1470 nM and the Kd (SH2 and PTB domains; Protein SH2D3A) was 1600 nM. For the same molecule, the Kd (SH2 and PTB domains; Protein SH2D3C) was 710 nM, the Kd (SH2 and PTB domains; Protein SHC1-PTB) was 610 nM and the Kd (SH2 and PTB domains; Protein SHC2-PTB) was 460 nM. The Kd (SH2 and PTB domains; Protein SHC3) was 1710 nM, the Kd (SH2 and PTB domains; Protein SHF) was 590 nM and the Kd (SH2 and PTB domains; Protein SRC) was 200 nM. The Kd (SH2 and PTB domains; Protein SYK-C) was 1970 nM, the Kd (SH2 and PTB domains; Protein SYK-N) was 200 nM and the Kd (SH2 and PTB domains; Protein SYK-NC) was 460 nM. For the same molecule, the Kd (SH2 and PTB domains; Protein TEC) was 1610 nM, the Kd (SH2 and PTB domains; Protein TENC1) was 840 nM and the Kd (SH2 and PTB domains; Protein TNS3) was 1290 nM. For the same molecule, the Kd (SH2 and PTB domains; Protein VAV3) was 1120 nM, the Kd (SH2 and PTB domains; Protein YES1) was 220 nM and the Kd (GRB7 SH2 domain) was 250 nM.
With `CC(C)C[C@H](NC(=O)[C@H](CO)NC(=O)[C@H](Cc1ccccc1)NC(=O)[C@H](CCC(=O)O)NC(=O)[C@H](CO)NC(=O)[C@H](CC(C)C)NC(=O)[C@H](Cc1ccc(OP(=O)(O)O)cc1)NC(=O)[C@H](CCC(=O)O)NC(=O)[C@@H]1CCCN1C(=O)[C@H](CC(N)=O)NC(=O)[C@@H](N)CCC(=O)O)C(=O)N[C@@H](CCCCN)C(=O)N[C@@H](CC(=O)O)C(=O)O` [ErbB4 1284 13-mer] (HELM PEPTIDE1{E.N.P.E.[O=C([C@H](Cc1ccc(OP(=O)(O)O)cc1)N[*:1])[*:2]].L.S.E.F.S.L.K.D}$$$$V2.0) the Kd (PLCG1-C SH2 domain; protein PLCG1-C, mean of replicate hits) was 3680 nM.
Molecule `CC(C)C[C@H](NC(=O)[C@H](Cc1ccc(OP(=O)(O)O)cc1)NC(=O)[C@H](CCC(=O)O)NC(=O)[C@H](CCC(N)=O)NC(=O)[C@H](CCCCN)NC(=O)[C@@H]1CCCN1)C(=O)N[C@@H](CC(N)=O)C(=O)N1CCC[C@H]1C(=O)N[C@H](C(=O)N[C@@H](CCC(=O)O)C(=O)N[C@@H](CCC(=O)O)C(=O)N[C@@H](CC(N)=O)C(=O)N[C@@H](CC(=O)O)C(=O)O)C(C)C` [ErbB4 1162 13-mer] (HELM PEPTIDE1{P.K.Q.E.[O=C([C@H](Cc1ccc(OP(=O)(O)O)cc1)N[*:1])[*:2]].L.N.P.V.E.E.N.D}$$$$V2.0) has a Kd [1] of 5310 nM and a Kd (RASA1-N SH2 domain) of 2900 nM.
Work on `CC(C)C[C@H](NC(=O)[C@H](Cc1ccc(OP(=O)(O)O)cc1)NC(=O)[C@H](CCC(=O)O)NC(=O)[C@H](C)NC(=O)[C@H](CC(N)=O)NC(=O)[C@@H](N)CCC(=O)O)C(=O)N[C@@H](CCCNC(=N)N)C(=O)N[C@H](C(=O)N[C@@H](C)C(=O)N1CCC[C@H]1C(=O)N[C@@H](CCC(N)=O)C(=O)N[C@@H](CO)C(=O)N[C@@H](CC(=O)O)C(=O)O)C(C)C` [ErbB1 1197 13-mer] (HELM PEPTIDE1{E.N.A.E.[O=C([C@H](Cc1ccc(OP(=O)(O)O)cc1)N[*:1])[*:2]].L.R.V.A.P.Q.S.D}$$$$V2.0) yielded a Kd (PLCG1-C SH2 domain; Protein PLCG1-C, FP saturation binding, mean over replicate hits) of 5670 nM.
